What was measured:
Test in all cases: relative viability (nuclei count vs DMSO), 5 days (fraction); higher = more cells survive
Tanzisertib + Alpelisib = compound: O[C@H]1CC[C@H](Nc2ncc3nc(Nc4c(F)cc(F)cc4F)n([C@H]4CCOC4)c3n2)CC1 [Tanzisertib] + Cc1nc(NC(=O)N2CCC[C@H]2C(N)=O)sc1-c1ccnc(C(C)(C)C(F)(F)F)c1 [Alpelisib] (partner 2 µM)
Outline: (§1)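 Nuclei were stained with Hoechst during a one-step fixation (final 0.05% Triton X-100, 1% formaldehyde, 1 ug/ml Hoechst) carried out 5 days after dosing, then counted on 4× images. The cells, lung cancer lines in 1536-well plates, had been dosed by pin tool the day after seeding with one drug alone or a fixed anchor-drug dose plus five library-drug doses (not always all listed) in √10 steps. Relative viability is the nuclei count in treated wells divided by that in vehicle wells, and each value is the median of duplicate plates.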

[1] = compound: C[C@@H](N)c1ccc(C(=O)Nc2ccnc3[nH]ccc23)cc1 + C[C@@H](Oc1cc(-c2cnn(C3CCNCC3)c2)cnc1N)c1c(Cl)ccc(F)c1Cl [Crizotinib] (partner 1 µM)
Outline: as §1

[2] = compound: C1CNCCC1C2=CC(=NN2)C3=CC=NC=C3 + Cc1nc(NC(=O)N2CCC[C@H]2C(N)=O)sc1-c1ccnc(C(C)(C)C(F)(F)F)c1 [Alpelisib] (partner 2 µM)
Outline: as §1

[3] = compound: C[C@@H](N)c1ccc(C(=O)Nc2ccnc3[nH]ccc23)cc1 + Cc1nc(NC(=O)N2CCC[C@H]2C(N)=O)sc1-c1ccnc(C(C)(C)C(F)(F)F)c1 [Alpelisib] (partner 2 µM)
Outline: as §1

| Cell Line | relative viability (Tanzisertib + Alpelisib; first compound 0.08 µM) | relative viability (Tanzisertib + Alpelisib; first compound 0.253 µM) | relative viability (Tanzisertib + Alpelisib; first compound 0.8 µM) | relative viability (Tanzisertib + Alpelisib; first compound 2.53 µM) | relative viability (Tanzisertib + Alpelisib; first compound 8 µM) | relative viability ([1]; first compound 0.04 µM) | relative viability ([1]; first compound 0.1265 µM) | relative viability ([1]; first compound 0.4 µM) | relative viability ([1]; first compound 1.265 µM) | relative viability ([1]; first compound 4 µM) | relative viability ([2]; first compound 0.08 µM) | relative viability ([2]; first compound 0.8 µM) | relative viability ([2]; first compound 2.53 µM) | relative viability ([2]; first compound 8 µM) | relative viability ([3]; first compound 0.04 µM) | relative viability ([3]; first compound 0.1265 µM) | relative viability ([3]; first compound 0.4 µM) | relative viability ([3]; first compound 1.265 µM) | relative viability ([3]; first compound 4 µM) |
| --- | --- | --- | --- | --- | --- | --- | --- | --- | --- | --- | --- | --- | --- | --- | --- | --- | --- | --- | --- |
| LOU-NH91 | 0.755 | 0.706 | 0.716 | 0.694 | 0.549 | 0.691 | 0.727 | 0.691 | 0.668 | 0.635 | 0.698 | 0.677 | 0.811 | 0.749 | 0.684 | 0.764 | 0.671 | 0.609 | 0.613 |
| LU99A | 0.549 | 0.519 | 0.521 | 0.503 | 0.456 | 0.55 | 0.558 | 0.58 | 0.462 | 0.47 | 0.545 | 0.579 | 0.65 | 0.566 | 0.554 | 0.554 | 0.562 | 0.545 | 0.52 |
| LXF-289 | 1.06 | 1.02 | 1.05 | 1.04 | 1.11 | 0.846 | 0.784 | 0.883 | 0.915 | 0.715 | 1.03 | 0.973 | 1.06 | 1 | 1.12 | 1.04 | 1.04 | 1.07 | 0.85 |
| NCI-H23 | 0.63 | 0.617 | 0.705 | 0.747 | 0.718 | 0.589 | 0.571 | 0.619 | – | 0.511 | 0.614 | 0.691 | 0.713 | 0.69 | 0.802 | 0.766 | 0.883 | – | 0.608 |
| NCI-H322M | 0.935 | 0.648 | 0.774 | 0.669 | 0.776 | 0.881 | 0.944 | 1.09 | – | 1.08 | 1.39 | 0.7 | 0.933 | 0.761 | 0.909 | 0.838 | 0.935 | – | 0.969 |
| NCI-H358 | 0.902 | 0.762 | 0.922 | 0.717 | 0.635 | 0.744 | 0.543 | 0.676 | 0.513 | 0.633 | 0.588 | 0.831 | 0.839 | 0.845 | 0.846 | 0.739 | 0.821 | 0.767 | 0.73 |
| NCI-H441 | 0.925 | 0.69 | 0.674 | 0.713 | 0.635 | 0.807 | 0.764 | 0.749 | 0.948 | 0.565 | – | 0.628 | 0.833 | 0.708 | 0.715 | 0.602 | 0.641 | 0.669 | 0.919 |
| NCI-H1395 | 1.11 | 1.14 | 1.04 | 1.04 | 0.983 | – | – | – | – | – | 0.977 | 0.77 | 1.46 | 0.975 | 1.07 | 0.976 | 0.996 | – | 0.838 |
| NCI-H1650 | – | – | – | – | – | 1.04 | 1.12 | 1.04 | 0.911 | 0.763 | – | – | – | – | – | – | – | – | – |
| NCI-H1793 | 0.842 | 0.532 | 0.754 | 0.754 | 0.733 | – | – | – | – | – | 0.659 | 0.569 | 0.783 | 0.739 | 0.853 | 0.672 | 0.704 | – | 0.833 |

From the supplement of paper PMC10307832
